Type in all cases: cell-based, human
The subject of assay [1] is THP-1 cells. Kind of assay: Proteomic profiling (DIA mass spectrometry) of treated THP-1 cells vs DMSO. How it is done: Cells were lysed in RIPA buffer and sonicated. Proteins were precipitated with cold acetone, pelleted, and resuspended. Reduction was carried out in 25 µL of 100 mM NH4HCO3 with 2.5 µL of 200 mM DTT (Merck, St. Louis, MO, USA) at 60 °C for 45 min, followed by alkylation with 10 µL of 200 mM iodoacetamide (Merck, St. Louis, MO, USA) for 1 h at room temperature in the dark. Excess iodoacetamide was quenched by adding 200 mM DTT. Proteins were then digested with trypsin, dried by SpeedVac, and desalted. Peptides were analyzed on an Ultimate 3000 RSLCnano system coupled to an Orbitrap Exploris 480 equipped with FAIMS (all from Thermo Fisher Scientific). Samples were loaded onto a reversed-phase C18 column (15 cm × 75 µm i.d., Thermo Fisher Scientific) and eluted at 500 nL min^−1 using a 6–95% solvent B gradient over 41 min, followed by 1 min of re-equilibration at 6% B. Data were acquired in positive mode with a spray voltage of 2500 V and FAIMS in standard resolution at a compensation voltage of −45 V. Data-independent acquisition (DIA) was performed with a precursor m/z range of 400–900, using 8 m/z isolation windows with 1 m/z overlap, HCD collision energy of 27%, Orbitrap resolution of 30,000, RF Lens 50%, normalized AGC target 1000, maximum injection time 25 ms, and 1 microscan. DIA data were processed with DIA-NN (v1.8.1) in library-free mode, applying deep-learning prediction for spectra, retention times, and ion mobility. Searches assumed Trypsin/P specificity, precursor charges 1–4, peptide lengths of 7–30 amino acids, and precursor m/z values of 400–900, allowing up to two missed cleavages. Carbamidomethylation of Cys was set as a fixed modification; Met oxidation was set as a variable modification (maximum two per peptide). The false discovery rate was maintained at 1%.
Normalized data from two independent proteomic experiments were obtained, each comparing a treatment condition to DMSO: (1) ritanserin vs. DMSO and (2) BAY 2965501 vs. DMSO. For each condition, three biological replicates were analyzed.
Protein abundance differences were calculated separately for each treatment relative to DMSO using a t-test, generating log2 fold change (log2FC) and adjusted p-values (p-adj). All proteins identified by UniProt ID were annotated with the corresponding gene symbol using QIAGEN Ingenuity Pathway Analysis (IPA; QIAGEN Inc., https://digitalinsights.qiagen.com/IPA, accessed on 5 June 2025). Proteins lacking a gene symbol were annotated as NA [42].
Data were filtered to include only proteins with |log2FC| > 2 and p-adj < 0.05, and retaining those annotated with a gene symbol.
Cells treated with equal amounts of DMSO (vehicle) were used as controls.

The test system of assay [2] is K562 cells. Kind of assay: Annexin V-FITC/7AAD apoptosis/necrosis flow cytometry, K562. Particulars: K562, 24 h. How it is done: To determine the type of cell death, apoptotic and necrotic cells were detected by flow cytometry using the Apoptosis Detection Kit Annexin V-FITC (Invitrogen, Carlsbad, CA, USA). For each sample, 500,000 cells, pretreated for 24 h, were stained according to manufacturer’s instructions, using 7-aminoactinomycin D (7AAD) instead of propidium iodide. Samples were analyzed on a BD FACS Symphony A5 flow cytometer (Franklin Lakes, NJ, USA) using BD FACSDiva 9.1 software. Data were gated based on FSC-A vs. FSC-H to exclude cell doublets and FSC-A vs. SSC-A to exclude debris. Different populations were identified as: live (Annexin V− and 7AAD−), necrotic (Annexin− and 7AAD+), early apoptotic (Annexin V+ and 7AAD−) and late apoptotic (Annexin+ and 7AAD+). Data are shown as mean ± SD of at least three independent experiments analyzed by GraphPad Prism 10 (control vs. [inhibitor]).

The subject of assay [3] is THP-1 cells. Kind of assay: IPA canonical pathway analysis of differentially abundant proteins. The following applies: THP-1, 24 h; ritanserin 50 µM, BAY 2965501 75 µM. The source says: A Venn diagram was created to depict the overlap of differentially abundant proteins shared between the two treatments. These proteins, along with their gene symbols and log2FC values, were then used as input for IPA Core Analysis. The following filters were applied: human species and reference tissues/cells (hematopoietic progenitor cells, macrophages, monocytes, peripheral blood monocytes, and THP1 leukemic cells). The resulting Ingenuity Canonical Pathways were downloaded using standard filters and further refined to consider only those with a |Z-score| > 1. For ritanserin vs. DMSO, the top 15 most significant pathways were represented in a bar plot, while for BAY 2965501 vs. DMSO, only three significant pathways were identified and plotted.

[4] abbreviates: concentration close to IC50, representative plot.

Molecules are shown by their SMILES.

Take `Cc1nc2sccn2c(=O)c1CCN1CCC(=C(c2ccc(F)cc2)c2ccc(F)cc2)CC1` [ritanserin]: the “number of significantly downregulated proteins” value in assay [1] (THP-1, 24 h, ritanserin 50 µM, BAY 2965501 75 µM, vs DMSO) is recorded as “approximately 1200”. For the same compound, the “number of significantly upregulated proteins” value in assay [1] (THP-1, 24 h, ritanserin 50 µM, vs DMSO) was 14. Besides, in assay [1] (THP-1, ritanserin 50 µM, 24 h), the “log2FC A2M (P01023) protein abundance vs DMSO” value was 4.998, the “log2FC AAAS (Q9NRG9) protein abundance vs DMSO” value was 0.1245, the “log2FC AACS (Q86V21) protein abundance vs DMSO” value was 1.025 and the “log2FC AAK1 (Q2M2I8) protein abundance vs DMSO” value is given as -2.961. In addition, the “log2FC AAMDC (Q9H7C9) protein abundance vs DMSO” value in assay [1] (THP-1, ritanserin 50 µM, 24 h) is reported as -1.488. The “number of differentially abundant proteins” value in assay [1] (THP-1, |log2FC| > 2 and p-adj < 0.05, with gene symbol, vs DMSO) amounted to 1210. Besides, in assay [2] (setting [4]), the “Early apoptotic (Annexin V+ 7AAD-)” value came out at 6.2%, the “Late apoptotic (Annexin+ 7AAD+)” value worked out at 1.7%, the “Live cells (Annexin V- 7AAD-)” value is given as 90.1% and the “Necrotic (Annexin- 7AAD+)” value is 2.0%. The “modality of cell death” value in assay [2] (concentration near IC50) was “early apoptosis”. In addition, in assay [3], the “number of pathways affected / significantly downmodulated” value was “more than 500”.

Values taken from article PMC12609579, “Acute Myeloid Leukemia: A Key Role of DGKα and DGKζ in Cell Viability” (Cells, 2025).
